Assays:
rat whole blood = test: Hemolysis screening of surfactants; assay type: cell-based; details: 5% surfactant in 0.9% saline admixed 1:1 with rat whole blood; visually distinct red hue of supernate
Experimental: Surfactant Examples 1a-1k according to general Structure I above, and 2a of Structure II above, were prepared following the above procedures.
(§1) Surfactants were screened initially by preparing 5% solutions/dispersions of the surfactant in 0.9% saline and admixing 1:1 with rat whole blood. Centrifugation (6 minutes) at 2400 rpm afforded packed cells and a supernate. […] The discoloration of the supernate was not quantified colorimetrically.

Sprague Dawley rats = test: Preliminary acute toxicity screen; assay type: in vivo; details: 5% sonicated dispersion in 0.9% saline, two Sprague Dawley rats, 14 days
[1] = Solubility/dispersion of surfactant in 0.9% saline; assay type: physicochemical; details: 5% solution/dispersion in 0.9% saline
Experimental: as §1

[2] = Organ distribution 14 days after infusion (Table V); assay type: in vivo, rats; details: for Kidney / Liver / Lung / Spleen / Survival / Hct: 14 days after infusion of 40 cc/Kg; for Hct: hematocrit
Experimental: The impact of the emulsions of Table IV on organ distribution of PFC was then determined by sacrificing the test animals 14 days after infusion.

[3] = Perfluorochemical circulatory blood residence time (fluorocrit); assay type: in vivo, rats; details: perfluorochemical remaining at 48 hours
Experimental: The emulsions of Tables II and III were studied in a randomized, ten animal per emulsion experiment in which each animal was infused with 20 cc/Kg of emulsion and sacrificed at 48 hours to determine the circulatory perfluorochemical or perfluorocarbon content called "fluorocrit" and abbreviated "Fct". The Fct represents that percentage of the blood that is perfluorocarbon in v/v %.
After 48 hrs., the animals were anesthetized, the chest cavity was opened, and a blood sample (1-2ml) was withdrawn from the still beating heart. Three to 4 drops of the sample were added to each of three previously tared 4 ml vials containing 10%KOH/EtOH (1.0 ml). The vials were weighed to determine the amount of blood added, then reweighed after an internal standard mixture of 1% octane in CFCl3 (1.5-2.0ml) was added. H2 O was added to the vial until full, then the vial was placed on a rotary shaker at 240 rpm for 20 minutes. The lower layer was withdrawn, and passed through a glass wool plugged pasteur pipette containing silica gel (0.3-0.4g). […] The program parameters specified a hold period at 40° C. for 4 minutes, followed by a 10° C./minute temperature rise until 140° was attained.

[4] = Emulsion mean particle size and stability after 4 days in serum albumin/Lactated Ringer's at 37° C.; assay type: physicochemical
Excerpt: The surfactants of Table I were used to make 40 volume % (v/v) perfluorochemical emulsions. In the above described European Pat. Appln. […] Therefore, those perfluorochemical emulsions were used as a control for comparison with the perfluorochemical emulsions of this invention.
For comparison with the data of Table II, the study was repeated with a constant loading of 2 w/v % surfactant, and 2 w/v % safflower oil adjuvant for the control and surfactants of this invention.

[5] = Organ distribution, additional separate study (Table VI); assay type: in vivo, rats
[6] = Organ distribution, additional separate study (Table VII); assay type: in vivo, rats
Blood hematology = assay type: in vivo, rats; details: Table VIII, accredited outside laboratories
Excerpt: The effects on the liver and lung were not as pronounced in Table VI as in Table V. However, with respect to Table VII, it is believed that the smaller values obtained for the liver and spleen are also real.

[7] = K. Yokoyama et al; cited from earlier work

Compound | Hemolytic (rat whole blood) | Survival at 40 cc/Kg of 5% solution (Sprague Dawley rats) | Kidney [2] [g/100 g] | Liver [2] [g/100 g] | Lung [2] [g/100 g] | Spleen [2] [g/100 g] | Survival [2] | Hct [2] [v/v %] | other results
CCCCCCCCOCC(COP(=O)([O-])OCC[N+](C)(C)C)OCCCCCCCC (stereo not shown) [Cpd 1a, 1,2-dioctylglycero-3-phosphoryl choline] | hemolytic and Yes | – | – | – | – | – | – | – | –
CCCCCCCCCCCCCCOCC(COP(=O)([O-])OCC[N+](C)(C)C)OCCCCCCCCCCCCCC (stereo not shown) [Cpd 1b, 1,2-ditetradecylglycero-3-phosphoryl choline] | hemolytic and Yes | – | – | – | – | – | – | – | –
CCCCCCCCCCCCCCCCOCC(COP(=O)([O-])OCC[N+](C)(C)C)OCCCCCCCCCCCCCCCC (stereo not shown) [Cpd 1c, 1,2-dihexadecylglycero-3-phosphoryl choline] | No | 2/2 | – | – | – | – | – | – | –
CCCCCCCCCCCCCCCCCCOCC(COP(=O)([O-])OCC[N+](C)(C)C)OCCCCCCCCCCCCCCCCCC (stereo not shown) [Cpd 1d, 1,2-di-octadecylglycero-3-phosphoryl choline] | No | – | – | – | – | – | – | – | Solubility (entry in survival column) [1]: insoluble cpd
CCCCCCCCCCCCCCCCOCC(COP(=O)([O-])OCC[N+](C)(C)C)OCCCCCCCCCCCCCC (stereo not shown) [Cpd 1e, 1-hexadecyl-2-tetradecylglycero-3-phosphoryl choline] | No | 0/2 | 1.06 | 7.97 | 0.57 | 1.55 | 9/10 | 35.8 | –
CCCCCCCCCCCCCCCCCCOCC(COP(=O)([O-])OCC[N+](C)(C)C)OCCCCCCCCCCCCCC (stereo not shown) [Cpd 1f, 1-octadecyl-2-tetradecylglycero-3-phosphoryl choline] | No | 2/2 | – | – | – | – | – | – | circulatory blood residence / stability in the circulatory blood system (in words) [3]: increased stabilities in the circulatory blood system
CCCCCCCCCCCCCCCCCCOC(COCCCCCCCCCCCCCC)COP(=O)([O-])OCC[N+](C)(C)C (stereo not shown) [Cpd 1g, 1-tetradecyl-2-octadecylglycero-3-phosphoryl choline] | No | 0/2 | 0.94 | 7.52 | 0.55 | 1.49 | 6/10 | 39.0 | –
CCCCCCCCCCCCCCCCCCOC(COCCCCCCCCCCCCCCCC)COP(=O)([O-])OCC[N+](C)(C)C (stereo not shown) [Cpd 1h, 1-hexadecyl-2-octadecylglycero-3-phosphoryl choline] | No | 0/2 | – | – | – | – | – | – | –
CCCCCCCC/C=C\CCCCCCCCOCC(COP(=O)([O-])OCC[N+](C)(C)C)OCCCCCCCC/C=C\CCCCCCCC (stereo not shown) [Cpd 1i, 1,2-Dioleylglycerophosphoryl choline] | No | 2/2 | 0.96 | 7.47 | 0.64 | 2.56 | 8/10 | 34.7 | Mean Particle Size ([4]; Table II, 1.8 w/v % Cpd., 2.0 w/v % oil, 40 v/v % PFC emulsion, sterilized 15 min 121° C.): 304 nM; 4 days Serum ([4]; Table II, 1.8 w/v % Cpd., 2.0 w/v % oil, particle size after 4 days at 37° C. in serum albumin/Lactated Ringer's): 258 nM; Mean Particle Size ([4]; Table III, 2 w/v % surfactant, 2 w/v % safflower oil): 323 nM; 4 days Serum ([4]; Table III, 2 w/v % surfactant, 2 w/v % safflower oil, 4 days at 37° C. in serum albumin/Lactated Ringer's): 301 nM
CCCCCCCCCCCCCCCCCCOCC(COP(=O)([O-])OCC[N+](C)(C)C)OCCCCCCCCCCCCCCCC (stereo not shown) [Cpd 1j, 1-octadecyl-2-hexadecylglycero-3-phosphoryl choline] | – | – | 0.89 | 6.64 | 0.57 | 1.66 | 9/10 | 44.4 | circulatory blood residence / stability in the circulatory blood system (in words) [3]: increased stabilities in the circulatory blood system; drop in hematocrit after infusion (in words) ([2]; vs control): so striking; Kidney [5]: 0.97 g/100 g; Liver [5]: 7.44 g/100 g; Lung [5]: 0.98 g/100 g; Spleen [5]: 1.70 g/100 g; Survival [5]: 10/10; Hct ([5]; hematocrit): 36.1 v/v %; Kidney [6]: 0.901 g/100 g; Liver [6]: 7.39 g/100 g; Lung [6]: 0.828 g/100 g; Spleen [6]: 1.46 g/100 g; Survival [6]: 10/10; Hct ([6]; hematocrit): 37.7 v/v %; Platelets (Blood hematology): 1024222; RBC (Blood hematology): 5.42; Reticulocytes (Blood hematology): 313281; Hemoglobin (Blood hematology; in g/dL (unit assumed)): 11.04
CCCCCCCCCCCCCCCCOC(COCCCCCCCCCCCCCC)COP(=O)([O-])OCC[N+](C)(C)C (stereo not shown) [Cpd 1k, 1-tetradecyl-2-hexadecylglycero-3-phosphoryl choline] | – | – | 1.22 | 7.76 | 0.64 | 2.09 | 9/10 | 36.5 | –
FC(F)(F)C(F)(F)C(F)(F)N(C(F)(F)C(F)(F)C(F)(F)F)C(F)(F)C(F)(F)C(F)(F)F [perfluorotripropylamine] | – | – | – | – | – | – | – | – | half life in the liver and other body tissues (in words) [7]: longer than desirable

From patent US5439944A, “Red blood cell substitute emulsions containing alkyl- or alkylglyucerophosphoryl choline surfactants and methods of use” (priority 1993, dated 1995)
